Calls of active or inactive are those of the source. No cut-off for these calls is given here.
Tests used:
[1] = Inhibition of LPS/MDP-stimulated TNFalpha production in C57BL/6J mouse BMDM cells by ELISA relative to control; format: functional, cell-based
[2] = Metabolic stability in human liver microsomes assessed as half life at 1 uM by LC/MS/MS analysis; format: ADME, Microsome
[3] = Toxicity in rat H9c2 cells assessed as inhibitory rate; format: cell-based
[4] = tested on: Mus musculus; experiment: Anti-inflammatory activity against DSS-induced acute ulcerative colitis C57BL/6 mouse model assessed as recovery of weight loss at 20 mg/kg, po for 6 consecutive days; format: functional, organism-based
[5] = tested on: RAW264.7; experiment: Cytotoxicity against mouse RAW264.7 cells at 62.5 to 250 nM in presence of NOD measured after 24 hrs by propidium iodide staining based flow cytometry; format: toxicity, cell-based; conditions: raw264.7, 24 h, 0.25 µM, dose 62.5-250 nM
[6] = tested on: RAW264.7; experiment: Inhibition of MDP-stimulated TNFalpha production in mouse RAW264.7 cells assessed as TNFalpha mRNA level upto 50 nM incubated for 22 hrs by real-time PCR analysis; format: functional, cell-based
[7] = biological target: Epithelial discoidin domain-containing receptor 1 (Homo sapiens, UniProt Q08345); experiment: Inhibition of human DDR1 by kinase assay
Sequence of Epithelial discoidin domain-containing receptor 1 (Q08345 whole entry, the tested form may be a part): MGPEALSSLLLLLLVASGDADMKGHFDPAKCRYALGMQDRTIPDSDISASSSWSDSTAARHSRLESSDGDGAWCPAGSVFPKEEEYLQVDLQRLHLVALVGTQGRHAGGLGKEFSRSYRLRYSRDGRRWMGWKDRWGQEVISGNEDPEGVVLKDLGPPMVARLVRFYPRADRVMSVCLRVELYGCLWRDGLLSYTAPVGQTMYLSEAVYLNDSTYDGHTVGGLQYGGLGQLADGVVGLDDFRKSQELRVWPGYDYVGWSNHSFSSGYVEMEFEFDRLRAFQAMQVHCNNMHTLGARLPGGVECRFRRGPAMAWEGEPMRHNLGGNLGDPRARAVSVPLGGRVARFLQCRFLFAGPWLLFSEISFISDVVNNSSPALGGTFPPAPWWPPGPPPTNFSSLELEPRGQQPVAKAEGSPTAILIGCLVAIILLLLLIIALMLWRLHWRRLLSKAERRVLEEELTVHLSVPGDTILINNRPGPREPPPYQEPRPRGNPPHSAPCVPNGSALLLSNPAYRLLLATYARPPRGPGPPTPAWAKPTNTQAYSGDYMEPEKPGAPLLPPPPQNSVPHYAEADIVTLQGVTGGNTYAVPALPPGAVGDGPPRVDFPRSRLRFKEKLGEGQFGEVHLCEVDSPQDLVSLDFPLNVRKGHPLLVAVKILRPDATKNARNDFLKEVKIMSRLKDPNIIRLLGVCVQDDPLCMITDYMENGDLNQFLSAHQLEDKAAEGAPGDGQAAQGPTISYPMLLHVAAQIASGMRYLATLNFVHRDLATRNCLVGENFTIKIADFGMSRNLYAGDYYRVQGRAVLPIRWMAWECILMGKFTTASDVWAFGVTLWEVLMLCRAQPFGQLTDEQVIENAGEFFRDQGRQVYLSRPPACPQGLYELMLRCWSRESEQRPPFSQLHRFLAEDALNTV

[8] = biological target: Serine/threonine-protein kinase SIK1 (Homo sapiens, UniProt P57059); experiment: Inhibition of human SIK by kinase assay
Sequence of Serine/threonine-protein kinase SIK1 (P57059 whole entry): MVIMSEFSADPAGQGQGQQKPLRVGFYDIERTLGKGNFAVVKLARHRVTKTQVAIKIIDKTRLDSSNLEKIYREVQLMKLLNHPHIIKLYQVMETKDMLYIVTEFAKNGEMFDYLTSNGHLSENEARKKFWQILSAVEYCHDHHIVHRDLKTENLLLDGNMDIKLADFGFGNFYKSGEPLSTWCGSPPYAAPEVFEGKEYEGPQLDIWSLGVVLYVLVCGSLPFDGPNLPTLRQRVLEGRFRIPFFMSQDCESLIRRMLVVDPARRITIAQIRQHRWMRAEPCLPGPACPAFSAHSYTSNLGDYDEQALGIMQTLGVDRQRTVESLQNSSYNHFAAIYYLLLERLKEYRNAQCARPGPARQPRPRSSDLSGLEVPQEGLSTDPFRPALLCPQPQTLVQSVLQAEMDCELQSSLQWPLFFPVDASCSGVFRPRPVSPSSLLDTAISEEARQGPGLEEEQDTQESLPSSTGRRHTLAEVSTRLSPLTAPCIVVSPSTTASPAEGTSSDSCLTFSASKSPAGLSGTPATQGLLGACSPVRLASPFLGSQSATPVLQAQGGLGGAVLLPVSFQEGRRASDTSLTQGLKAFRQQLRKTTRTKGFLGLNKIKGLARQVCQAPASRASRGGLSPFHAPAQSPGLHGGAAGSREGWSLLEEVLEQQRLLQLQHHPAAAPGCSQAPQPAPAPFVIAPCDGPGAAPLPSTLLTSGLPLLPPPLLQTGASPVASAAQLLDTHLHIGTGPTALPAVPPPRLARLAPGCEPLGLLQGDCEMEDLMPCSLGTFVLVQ

[9] = biological target: Mast/stem cell growth factor receptor Kit (Homo sapiens, UniProt P10721); experiment: Inhibition of human KIT by kinase assay
Sequence of Mast/stem cell growth factor receptor Kit (P10721 whole entry): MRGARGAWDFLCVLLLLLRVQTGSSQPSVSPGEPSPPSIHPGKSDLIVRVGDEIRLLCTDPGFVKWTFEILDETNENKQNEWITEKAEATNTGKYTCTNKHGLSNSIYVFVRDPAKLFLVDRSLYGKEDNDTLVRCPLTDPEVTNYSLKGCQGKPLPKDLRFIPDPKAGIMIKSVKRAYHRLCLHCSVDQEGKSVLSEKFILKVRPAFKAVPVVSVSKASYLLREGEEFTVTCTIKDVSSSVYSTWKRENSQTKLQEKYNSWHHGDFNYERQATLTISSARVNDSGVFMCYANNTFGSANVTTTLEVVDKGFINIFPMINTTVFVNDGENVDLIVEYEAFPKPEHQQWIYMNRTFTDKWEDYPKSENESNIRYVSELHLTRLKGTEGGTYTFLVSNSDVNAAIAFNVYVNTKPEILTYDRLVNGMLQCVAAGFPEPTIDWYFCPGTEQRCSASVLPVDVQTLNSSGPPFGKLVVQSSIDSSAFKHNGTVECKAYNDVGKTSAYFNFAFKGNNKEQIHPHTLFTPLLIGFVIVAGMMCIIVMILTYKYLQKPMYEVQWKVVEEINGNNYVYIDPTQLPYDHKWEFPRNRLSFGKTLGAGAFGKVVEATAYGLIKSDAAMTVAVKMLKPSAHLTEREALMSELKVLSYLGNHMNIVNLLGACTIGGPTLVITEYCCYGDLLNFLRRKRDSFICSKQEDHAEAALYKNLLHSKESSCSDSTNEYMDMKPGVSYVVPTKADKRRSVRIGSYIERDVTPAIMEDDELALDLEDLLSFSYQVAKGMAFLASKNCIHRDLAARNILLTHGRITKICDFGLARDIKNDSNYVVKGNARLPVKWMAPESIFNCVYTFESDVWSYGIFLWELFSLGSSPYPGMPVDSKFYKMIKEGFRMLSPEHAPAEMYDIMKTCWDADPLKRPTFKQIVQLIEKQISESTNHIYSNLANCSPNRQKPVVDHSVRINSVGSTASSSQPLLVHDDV

[10] = biological target: Receptor-interacting serine/threonine-protein kinase 2 (Homo sapiens, UniProt O43353); experiment: Binding affinity to human RIPK2 in HEK293 cells; format: cell-based
Sequence of Receptor-interacting serine/threonine-protein kinase 2 (O43353 whole entry): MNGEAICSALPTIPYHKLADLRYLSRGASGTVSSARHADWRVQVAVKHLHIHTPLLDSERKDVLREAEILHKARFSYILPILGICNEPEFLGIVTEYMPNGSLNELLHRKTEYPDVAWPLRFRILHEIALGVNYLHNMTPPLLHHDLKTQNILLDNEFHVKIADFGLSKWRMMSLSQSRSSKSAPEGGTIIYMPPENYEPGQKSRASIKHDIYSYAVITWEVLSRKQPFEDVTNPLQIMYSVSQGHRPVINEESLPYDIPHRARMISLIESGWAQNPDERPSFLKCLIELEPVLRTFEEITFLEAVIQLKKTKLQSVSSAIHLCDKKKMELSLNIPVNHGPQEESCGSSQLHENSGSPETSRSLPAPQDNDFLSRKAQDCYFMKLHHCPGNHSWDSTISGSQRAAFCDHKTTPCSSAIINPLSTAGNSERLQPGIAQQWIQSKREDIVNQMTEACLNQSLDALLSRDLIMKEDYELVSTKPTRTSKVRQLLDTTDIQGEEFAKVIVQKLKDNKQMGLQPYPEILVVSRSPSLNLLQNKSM

[11] = biological target: Receptor-interacting serine/threonine-protein kinase 3 (Homo sapiens, UniProt Q9Y572); experiment: Binding affinity to human RIPK3 in human Jurkat cells; format: cell-based
Sequence of Receptor-interacting serine/threonine-protein kinase 3 (Q9Y572 whole entry): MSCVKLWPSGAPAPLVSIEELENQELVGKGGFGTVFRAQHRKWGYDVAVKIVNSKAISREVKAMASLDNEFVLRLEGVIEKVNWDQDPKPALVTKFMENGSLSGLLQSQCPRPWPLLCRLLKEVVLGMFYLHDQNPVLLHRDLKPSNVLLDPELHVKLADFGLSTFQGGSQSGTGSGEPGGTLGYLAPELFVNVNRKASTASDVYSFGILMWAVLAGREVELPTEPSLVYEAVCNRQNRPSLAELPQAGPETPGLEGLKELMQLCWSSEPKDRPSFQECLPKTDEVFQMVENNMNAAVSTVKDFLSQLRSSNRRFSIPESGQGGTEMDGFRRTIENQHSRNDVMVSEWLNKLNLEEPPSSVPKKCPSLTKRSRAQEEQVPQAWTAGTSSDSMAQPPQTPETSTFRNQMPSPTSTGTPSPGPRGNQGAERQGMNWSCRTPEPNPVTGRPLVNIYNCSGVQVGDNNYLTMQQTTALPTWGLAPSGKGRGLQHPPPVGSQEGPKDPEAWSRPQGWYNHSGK

[12] = biological target: T1, Receptor-interacting serine/threonine-protein kinase 4 (Homo sapiens, UniProt P57078); experiment: Binding affinity to human RIPK4
T1 sequence (P57078 whole entry): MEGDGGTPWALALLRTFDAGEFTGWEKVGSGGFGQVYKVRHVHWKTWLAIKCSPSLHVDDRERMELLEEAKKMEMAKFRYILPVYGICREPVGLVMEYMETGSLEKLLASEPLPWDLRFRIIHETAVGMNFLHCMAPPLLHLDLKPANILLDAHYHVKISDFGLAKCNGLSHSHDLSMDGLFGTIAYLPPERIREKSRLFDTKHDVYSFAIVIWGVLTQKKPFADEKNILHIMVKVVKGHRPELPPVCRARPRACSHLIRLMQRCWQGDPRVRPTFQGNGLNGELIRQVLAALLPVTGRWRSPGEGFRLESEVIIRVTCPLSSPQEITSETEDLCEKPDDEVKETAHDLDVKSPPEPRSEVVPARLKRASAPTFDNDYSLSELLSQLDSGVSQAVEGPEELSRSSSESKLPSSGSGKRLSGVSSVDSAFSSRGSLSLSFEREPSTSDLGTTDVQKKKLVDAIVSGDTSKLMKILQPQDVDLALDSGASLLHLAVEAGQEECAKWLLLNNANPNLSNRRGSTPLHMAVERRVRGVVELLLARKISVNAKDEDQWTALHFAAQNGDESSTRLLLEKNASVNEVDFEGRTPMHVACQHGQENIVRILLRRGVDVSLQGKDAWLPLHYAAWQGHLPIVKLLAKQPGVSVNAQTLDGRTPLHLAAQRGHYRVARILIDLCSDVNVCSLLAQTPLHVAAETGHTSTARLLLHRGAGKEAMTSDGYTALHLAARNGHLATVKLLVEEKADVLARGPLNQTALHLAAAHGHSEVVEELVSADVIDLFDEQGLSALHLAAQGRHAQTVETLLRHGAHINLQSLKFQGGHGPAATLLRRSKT

[13] = biological target: T2, Dual serine/threonine and tyrosine protein kinase (Homo sapiens, UniProt Q6XUX3); experiment: Binding affinity to human RIPK5
T2 sequence (Q6XUX3 whole entry): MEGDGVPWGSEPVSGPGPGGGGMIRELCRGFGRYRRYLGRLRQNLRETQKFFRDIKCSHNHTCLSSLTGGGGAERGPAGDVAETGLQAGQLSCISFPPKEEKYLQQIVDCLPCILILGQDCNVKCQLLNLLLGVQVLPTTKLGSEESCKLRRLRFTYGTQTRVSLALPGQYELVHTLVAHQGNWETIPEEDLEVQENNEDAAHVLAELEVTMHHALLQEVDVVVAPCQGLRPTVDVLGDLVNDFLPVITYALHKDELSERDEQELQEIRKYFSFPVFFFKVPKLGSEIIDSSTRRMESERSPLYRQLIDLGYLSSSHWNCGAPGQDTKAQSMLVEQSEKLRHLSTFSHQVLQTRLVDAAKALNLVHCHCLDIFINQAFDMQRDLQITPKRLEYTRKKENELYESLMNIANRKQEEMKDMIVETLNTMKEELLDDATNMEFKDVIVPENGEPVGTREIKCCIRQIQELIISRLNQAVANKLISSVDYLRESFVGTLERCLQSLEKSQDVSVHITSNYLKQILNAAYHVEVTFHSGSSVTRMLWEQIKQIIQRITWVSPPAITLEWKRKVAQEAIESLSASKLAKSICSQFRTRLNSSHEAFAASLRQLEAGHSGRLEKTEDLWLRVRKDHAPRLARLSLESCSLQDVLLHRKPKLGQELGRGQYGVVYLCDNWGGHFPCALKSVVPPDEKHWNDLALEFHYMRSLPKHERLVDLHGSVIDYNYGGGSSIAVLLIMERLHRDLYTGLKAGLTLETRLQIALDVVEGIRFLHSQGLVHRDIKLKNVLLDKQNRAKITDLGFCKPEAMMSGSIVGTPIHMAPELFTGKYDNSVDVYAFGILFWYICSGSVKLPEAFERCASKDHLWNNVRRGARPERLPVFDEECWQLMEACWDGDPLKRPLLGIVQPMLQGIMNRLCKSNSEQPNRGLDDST

[14] = Elimination half life in Balb/C mouse at 10 mg/kg, iv measured upto 48 hrs by LC-MS/MS analysis; format: ADME, organism-based; conditions: in vivo, read-out: beta t1/2 (converted)
[15] = AUC (0 to t) in Balb/C mouse at 10 mg/kg, iv measured upto 48 hrs by LC-MS/MS analysis; format: ADME, organism-based; design: time < 48 hrs, dose 10 mg/kg, route iv; conditions: in vivo
[16] = AUC (0 to t) in Balb/C mouse at 10 mg/kg, po measured upto 48 hrs by LC-MS/MS analysis; format: ADME, organism-based; design: time < 48 hrs, dose 10 mg/kg, route po; conditions: in vivo
[17] = Volume of distribution in Balb/C mouse at 10 mg/kg, iv measured upto 48 hrs by LC-MS/MS analysis; format: ADME, organism-based; conditions: in vivo
[18] = Volume of distribution in Balb/C mouse at 10 mg/kg, po measured upto 48 hrs by LC-MS/MS analysis; format: ADME, organism-based; conditions: in vivo
[19] = Drug uptake in DSS-induced acute ulcerative colitis C57BL/6 mouse model assessed as drug concentration in colon at 20 mg/kg, po after 0.5 hrs; format: ADME, organism-based; conditions: read-out: Drug uptake
[20] = Drug uptake in DSS-induced acute ulcerative colitis C57BL/6 mouse model assessed as drug concentration in colon at 20 mg/kg, po after 8 hrs; format: ADME, organism-based; conditions: read-out: Drug uptake

IC50 [1]: 0.3 nM
half-life at 1 µM [2]: > 120 min
IC50 [7]: 15 nM
IC50 [8]: 89 nM
IC50 [9]: 1510 nM
Kd [10]: 0.28 nM
Kd [11]: 74.5 nM
Kd [12]: 2300 nM
Kd [13]: 670 nM
half-life [14]: 234 min
AUC(0-t) at 48 h [15]: 1000 ng·h/mL
AUC(0-t) at 48 h [16]: 151 ng·h/mL
Vd [17]: 43.9 L/kg
Vd [18]: 333.24 L/kg
Compound: Cc1ccc(-c2cn([C@H]3CC[C@@H](N)CC3)c3ncnc(N)c23)c(F)c1
IC50 [3]: 12.3 µM
Activity [4]: Active
Activity [5]: Non-Toxic
inhibition [6]: Active
concentration at 0.5 h [19]: 3620 ng/g
concentration at 8 h [20]: 9140 ng/g

Source: ChEMBL document CHEMBL5131564, “Discovery of Potent and Selective Receptor-Interacting Serine/Threonine Protein Kinase 2 (RIPK2) Inhibitors for the Treatment of Inflammatory Bowel Diseases (IBDs)” (J Med Chem, 2022)
